# Measured values as given in PubChem BioAssay AID2060896 (Molecular Pharmacology Branch, DTP, NCI, 2025).
# Test system: 941728-121-R-J1-PDC complex spheroid viability
# Test: Anticancer human tumor 941728-121-R-J1-PDC patient-derived lung adenocarcinoma cell line growth inhibition [RAS]
# Details: for IC50: curve of first compound; for viability, T/C: stronger effect = lower value
# Method in brief: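 Tumour cells grown as complex spheroids with HUVEC endothelial cells and mesenchymal stem cells, treated with RAS pathway inhibitor combinations. Each agent spans half-log steps from near clinical Cmax, or 10 microM where Cmax is unknown.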
# [1] = second compound 0.000949 µM, first compound 0.0316 µM
# [2] = second compound 0.000949 µM, first compound 0.1 µM
# [3] = second compound 0.000949 µM, first compound 0.316 µM
# [4] = second compound 0.000949 µM, first compound 1 µM
# [5] = second compound 0.003 µM, first compound 0.0316 µM
# [6] = second compound 0.003 µM, first compound 0.1 µM
# [7] = second compound 0.003 µM, first compound 0.316 µM
# [8] = second compound 0.003 µM, first compound 1 µM
# [9] = second compound 0.00949 µM, first compound 0.0316 µM
# [10] = second compound 0.00949 µM, first compound 0.1 µM
# [11] = second compound 0.00949 µM, first compound 0.316 µM
# [12] = second compound 0.00949 µM, first compound 1 µM
# [13] = second compound 0.03 µM, first compound 0.0316 µM
# [14] = second compound 0.03 µM, first compound 0.1 µM
# [15] = second compound 0.03 µM, first compound 0.316 µM
# [16] = second compound 0.03 µM, first compound 1 µM
# [17] = second compound 0.0949 µM, first compound 0.0316 µM
# [18] = second compound 0.0949 µM, first compound 0.1 µM
# [19] = second compound 0.0949 µM, first compound 0.316 µM
# [20] = second compound 0.0949 µM, first compound 1 µM
# [21] = second compound 0.3 µM, first compound 0.0316 µM
# [22] = second compound 0.3 µM, first compound 0.1 µM
# [23] = second compound 0.3 µM, first compound 0.316 µM
# [24] = second compound 0.3 µM, first compound 1 µM
# 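Note: spheroids exposed to compounds for 7 days before readout.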
# 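Throughout, for viability, T/C: 100% = DMSO vehicle control viability.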
compound,measurement,setting,value
CC1(O)CCCC1n1c(=O)c(C(F)F)cc2cnc(NC3CCN(S(C)(=O)=O)CC3)nc21 (stereo unspecified) + C#Cc1c(F)ccc2cc(O)cc(-c3ncc4c(N5CC6CCC(C5)N6)nc(OCC56CCCN5CC(F)C6)nc4c3F)c12,IC50,second compound 0.0316 µM,6750 nM
same,IC50,second compound 0.1 µM,6760 nM
same,IC50,second compound 0.316 µM,> 10000 nM
same,IC50,second compound 1 µM,< 31.6 nM
same,IC50,second compound 3.16 µM,< 31.6 nM
same,IC50,second compound 10 µM,< 31.6 nM
same,"viability, T/C","second compound 0.0316 µM, first compound 0.0316 µM",69.8%
same,"viability, T/C","second compound 0.0316 µM, first compound 0.1 µM",75%
same,"viability, T/C","second compound 0.0316 µM, first compound 0.316 µM",71.9%
same,"viability, T/C","second compound 0.0316 µM, first compound 1 µM",80.1%
same,"viability, T/C","second compound 0.0316 µM, first compound 3.16 µM",81.7%
same,"viability, T/C","second compound 0.0316 µM, first compound 10 µM",36.7%
same,"viability, T/C","second compound 0.1 µM, first compound 0.0316 µM",69.4%
same,"viability, T/C","second compound 0.1 µM, first compound 0.1 µM",72%
same,"viability, T/C","second compound 0.1 µM, first compound 0.316 µM",62.6%
same,"viability, T/C","second compound 0.1 µM, first compound 1 µM",68.7%
same,"viability, T/C","second compound 0.1 µM, first compound 3.16 µM",75.7%
same,"viability, T/C","second compound 0.1 µM, first compound 10 µM",40%
same,"viability, T/C","second compound 0.316 µM, first compound 0.0316 µM",56.2%
same,"viability, T/C","second compound 0.316 µM, first compound 0.1 µM",51.5%
same,"viability, T/C","second compound 0.316 µM, first compound 0.316 µM",51.2%
same,"viability, T/C","second compound 0.316 µM, first compound 1 µM",65.6%
same,"viability, T/C","second compound 0.316 µM, first compound 3.16 µM",65%
same,"viability, T/C","second compound 0.316 µM, first compound 10 µM",39.9%
same,"viability, T/C","second compound 1 µM, first compound 0.0316 µM",44.2%
same,"viability, T/C","second compound 1 µM, first compound 0.1 µM",38.9%
same,"viability, T/C","second compound 1 µM, first compound 0.316 µM",46.9%
same,"viability, T/C","second compound 1 µM, first compound 1 µM",50.3%
same,"viability, T/C","second compound 1 µM, first compound 3.16 µM",55.3%
same,"viability, T/C","second compound 1 µM, first compound 10 µM",36%
same,"viability, T/C","second compound 3.16 µM, first compound 0.0316 µM",30.1%
same,"viability, T/C","second compound 3.16 µM, first compound 0.1 µM",33%
same,"viability, T/C","second compound 3.16 µM, first compound 0.316 µM",36.5%
same,"viability, T/C","second compound 3.16 µM, first compound 1 µM",36.9%
same,"viability, T/C","second compound 3.16 µM, first compound 3.16 µM",38.5%
same,"viability, T/C","second compound 3.16 µM, first compound 10 µM",28.6%
same,"viability, T/C","second compound 10 µM, first compound 0.0316 µM",25.6%
same,"viability, T/C","second compound 10 µM, first compound 0.1 µM",26.6%
same,"viability, T/C","second compound 10 µM, first compound 0.316 µM",28%
same,"viability, T/C","second compound 10 µM, first compound 1 µM",28.1%
same,"viability, T/C","second compound 10 µM, first compound 3.16 µM",28%
same,"viability, T/C","second compound 10 µM, first compound 10 µM",24%
CC(=O)OC12COC1CC(O)C1(C)C(=O)C(O)C3=C(C)C(OC(=O)C(O)C(NC(=O)OC(C)(C)C)c4ccccc4)CC(O)(C(OC(=O)c4ccccc4)C21)C3(C)C (stereo unspecified) + CCn1c(-c2cc(N3CCN(C)CC3)cnc2C(C)OC)c2c3cc(ccc31)-c1csc(n1)CC(NC(=O)C1CC1C)C(=O)N1CCCC(N1)C(=O)OCC(C)(C)C2,IC50,second compound 0.000949 µM,< 31.6 nM
same,IC50,second compound 0.003 µM,< 31.6 nM
same,IC50,second compound 0.00949 µM,< 31.6 nM
same,IC50,second compound 0.03 µM,< 31.6 nM
same,IC50,second compound 0.0949 µM,< 31.6 nM
same,IC50,second compound 0.3 µM,< 31.6 nM
same,"viability, T/C",[1],21.7%
same,"viability, T/C",[2],21.4%
same,"viability, T/C",[3],16.5%
same,"viability, T/C",[4],19.6%
same,"viability, T/C","second compound 0.000949 µM, first compound 3.16 µM",21.3%
same,"viability, T/C","second compound 0.000949 µM, first compound 10 µM",16.5%
same,"viability, T/C",[5],15.3%
same,"viability, T/C",[6],16.9%
same,"viability, T/C",[7],12.5%
same,"viability, T/C",[8],13.8%
same,"viability, T/C","second compound 0.003 µM, first compound 3.16 µM",13.4%
same,"viability, T/C","second compound 0.003 µM, first compound 10 µM",11.2%
same,"viability, T/C",[9],13.5%
same,"viability, T/C",[10],9.99%
same,"viability, T/C",[11],11.2%
same,"viability, T/C",[12],9.23%
same,"viability, T/C","second compound 0.00949 µM, first compound 3.16 µM",10.8%
same,"viability, T/C","second compound 0.00949 µM, first compound 10 µM",10.2%
same,"viability, T/C",[13],10.2%
same,"viability, T/C",[14],9.9%
same,"viability, T/C",[15],9.46%
same,"viability, T/C",[16],9.75%
same,"viability, T/C","second compound 0.03 µM, first compound 3.16 µM",7.17%
same,"viability, T/C","second compound 0.03 µM, first compound 10 µM",11.4%
same,"viability, T/C",[17],10.4%
same,"viability, T/C",[18],11%
same,"viability, T/C",[19],9.54%
same,"viability, T/C",[20],8.5%
same,"viability, T/C","second compound 0.0949 µM, first compound 3.16 µM",8.8%
same,"viability, T/C","second compound 0.0949 µM, first compound 10 µM",9.11%
same,"viability, T/C",[21],9.41%
same,"viability, T/C",[22],9.25%
same,"viability, T/C",[23],8.94%
same,"viability, T/C",[24],9.02%
same,"viability, T/C","second compound 0.3 µM, first compound 3.16 µM",7.68%
same,"viability, T/C","second compound 0.3 µM, first compound 10 µM",9.8%
Nc1ccn(C2OC(CO)C(O)C2(F)F)c(=O)n1 (stereo unspecified) + CCn1c(-c2cc(N3CCN(C)CC3)cnc2C(C)OC)c2c3cc(ccc31)-c1csc(n1)CC(NC(=O)C1CC1C)C(=O)N1CCCC(N1)C(=O)OCC(C)(C)C2,IC50,second compound 0.000949 µM,< 3.16 nM
same,IC50,second compound 0.003 µM,< 3.16 nM
same,IC50,second compound 0.00949 µM,< 3.16 nM
same,IC50,second compound 0.03 µM,< 3.16 nM
same,IC50,second compound 0.0949 µM,< 3.16 nM
same,IC50,second compound 0.3 µM,< 3.16 nM
same,"viability, T/C","second compound 0.000949 µM, first compound 0.00316 µM",25.2%
same,"viability, T/C","second compound 0.000949 µM, first compound 0.01 µM",25.2%
same,"viability, T/C",[1],16.8%
same,"viability, T/C",[2],21.1%
same,"viability, T/C",[3],21%
same,"viability, T/C",[4],17.1%
same,"viability, T/C","second compound 0.003 µM, first compound 0.00316 µM",18.2%
same,"viability, T/C","second compound 0.003 µM, first compound 0.01 µM",16.7%
same,"viability, T/C",[5],13.1%
same,"viability, T/C",[6],15.3%
same,"viability, T/C",[7],16.6%
same,"viability, T/C",[8],12.2%
same,"viability, T/C","second compound 0.00949 µM, first compound 0.00316 µM",13.2%
same,"viability, T/C","second compound 0.00949 µM, first compound 0.01 µM",11.3%
same,"viability, T/C",[9],12.9%
same,"viability, T/C",[10],12.9%
same,"viability, T/C",[11],12.4%
same,"viability, T/C",[12],10.5%
same,"viability, T/C","second compound 0.03 µM, first compound 0.00316 µM",12.4%
same,"viability, T/C","second compound 0.03 µM, first compound 0.01 µM",11.8%
same,"viability, T/C",[13],10.8%
same,"viability, T/C",[14],10.7%
same,"viability, T/C",[15],10.8%
same,"viability, T/C",[16],10.1%
same,"viability, T/C","second compound 0.0949 µM, first compound 0.00316 µM",13.3%
same,"viability, T/C","second compound 0.0949 µM, first compound 0.01 µM",10.6%
same,"viability, T/C",[17],12.8%
same,"viability, T/C",[18],11%
same,"viability, T/C",[19],9.57%
same,"viability, T/C",[20],11%
same,"viability, T/C","second compound 0.3 µM, first compound 0.00316 µM",10.7%
same,"viability, T/C","second compound 0.3 µM, first compound 0.01 µM",10.2%
same,"viability, T/C",[21],11%
same,"viability, T/C",[22],10.4%
same,"viability, T/C",[23],10.2%
same,"viability, T/C",[24],11.7%
